Laboratory results taken from ChEMBL document CHEMBL3045102, “Antibacterial, antifungal and antioxidant activity of some new water-soluble -diketones” (2013).
≈ marks a conversion by molar mass, not a printed value.

How the values were obtained:
Type in all cases: functional
Pseudomonas aeruginosa = assay: Antibacterial activity against Pseudomonas aeruginosa ATCC 27853 after 24 hr by sepctrophotometric method; settings: ATCC 27853, 24 h
Candida albicans = assay: Antifungal activity against Candida albicans ATCC 10231 after 48 hr by turbidity based microplate metohd; settings: ATCC 10231, 48 h
Staphylococcus aureus = assay: Antibacterial activity against Staphylococcus aureus ATCC 25923 after 24 hr by spectrophotometric method; settings: ATCC 25923, 24 h
Bacillus subtilis = assay: Antibacterial activity against Bacillus subtilis ATCC 6633 after 24 hr by spectrophotometric method; settings: ATCC 6633, 24 h
Escherichia coli = assay: Antibacterial activity against Escherichia coli ATCC 25922 after 24 hr by spectrophotometric method; settings: ATCC 25922, 24 h
Nakaseomyces glabratus = assay: Antifungal activity against Candida glabrata ATCC 36583 after 48 hr by turbidity based microplate metohd; settings: ATCC 36583, 48 h
[1] = test system: Radical scavenging activity; assay: Antioxidant activity assessed as decrease in DPPH free radical level after 20 min by DPPH assay method; design: concentration or dose not given beside the values

| SMILES | MIC (Pseudomonas aeruginosa) [µg/mL] | MIC (Candida albicans) [µg/mL] | MIC (Staphylococcus aureus) [µg/mL] | MIC (Bacillus subtilis) [µg/mL] | MIC (Escherichia coli) [µg/mL] | MIC (Nakaseomyces glabratus) [µg/mL] | inhibition [1] [%] |
| --- | --- | --- | --- | --- | --- | --- | --- |
| O=C(CC(=O)c1cc(Cl)c(O[C@@H]2O[C@H](CO)[C@@H](O)[C@H](O)[C@H]2O)cc1O)c1cccs1 | 30 (≈ 65.4 µM) | 5000 (≈ 10900 µM) | 300 (≈ 654 µM) | 625 (≈ 1360 µM) | 5000 (≈ 10900 µM) | 150 (≈ 327 µM) | 81.2 |
| OC(Cn1cncn1)(Cn1cncn1)c1ccc(F)cc1F [FLUCONAZOLE] | – | 10 (≈ 32.7 µM) | – | – | – | 10 (≈ 32.7 µM) | – |
| O=C(CC(=O)c1cc(Cl)c(O[C@@H]2O[C@H](CO)[C@@H](O)[C@H](O)[C@H]2O)cc1O)c1cccnc1 | 5000 (≈ 11000 µM) | 10000 (≈ 22000 µM) | 5000 (≈ 11000 µM) | 300 (≈ 661 µM) | 5000 (≈ 11000 µM) | 10000 (≈ 22000 µM) | 79.5 |
| O=C(CC(=O)c1cc(Cl)c(O[C@@H]2O[C@H](CO)[C@@H](O)[C@H](O)[C@H]2O)cc1O)c1ccco1 | 19 (≈ 42.9 µM) | 2500 (≈ 5650 µM) | 150 (≈ 339 µM) | 300 (≈ 678 µM) | 70 (≈ 158 µM) | 5000 (≈ 11300 µM) | 77 |
| O=C1O[C@H]([C@@H](O)CO)C(O)=C1O | – | – | – | – | – | – | 98 |
| O=C(CC(=O)c1cc(Cl)c(O[C@@H]2O[C@H](CO)[C@@H](O)[C@H](O)[C@H]2O)cc1O)c1ccccn1 | 19 (≈ 41.9 µM) | 150 (≈ 331 µM) | 150 (≈ 331 µM) | 1250 (≈ 2750 µM) | 19 (≈ 41.9 µM) | 2500 (≈ 5510 µM) | 85.5 |
| O=C(CC(=O)c1ccc(O[C@@H]2O[C@H](CO)[C@@H](O)[C@H](O)[C@H]2O)cc1O)c1cccnc1 | 1250 (≈ 2980 µM) | 10000 (≈ 23800 µM) | 150 (≈ 358 µM) | 625 (≈ 1490 µM) | 300 (≈ 715 µM) | 5000 (≈ 11900 µM) | 74.2 |
| O=C(CC(=O)c1ccc(O[C@@H]2O[C@H](CO)[C@@H](O)[C@H](O)[C@H]2O)cc1O)c1ccccn1 | 19 (≈ 45.3 µM) | 2500 (≈ 5960 µM) | 150 (≈ 358 µM) | 300 (≈ 715 µM) | 70 (≈ 167 µM) | 5000 (≈ 11900 µM) | 79 |
| O=C(CC(=O)c1ccc(O[C@@H]2O[C@H](CO)[C@@H](O)[C@H](O)[C@H]2O)cc1O)c1ccco1 | 5000 (≈ 12200 µM) | 5000 (≈ 12200 µM) | 625 (≈ 1530 µM) | 150 (≈ 367 µM) | 2500 (≈ 6120 µM) | 5000 (≈ 12200 µM) | 84.3 |
| CC1(C)S[C@@H]2[C@H](NC(=O)[C@H](N)c3ccccc3)C(=O)N2[C@H]1C(=O)O [AMPICILLIN] | 5 (≈ 14.3 µM) | – | 19 (≈ 54.4 µM) | 5 (≈ 14.3 µM) | 10 (≈ 28.6 µM) | – | – |
| O=C(CC(=O)c1ccc(O[C@@H]2O[C@H](CO)[C@@H](O)[C@H](O)[C@H]2O)cc1O)c1cccs1 | 150 (≈ 353 µM) | 2500 (≈ 5890 µM) | 300 (≈ 707 µM) | 150 (≈ 353 µM) | 1250 (≈ 2950 µM) | 5000 (≈ 11800 µM) | 74.2 |
